# Laboratory results: patent publication EP2289904A1, “Inhibitors of microbial infections” (Universita' degli Studi di Milano, priority 2009, dated 2011)
# Tests used:
# [1] = target: T1, dendritic cell receptor DC-SIGN (Homo sapiens, UniProt Q9NNX6); conditions: Reina et al. 2007; cited from earlier work
# T1 sequence (Q9NNX6 1-404): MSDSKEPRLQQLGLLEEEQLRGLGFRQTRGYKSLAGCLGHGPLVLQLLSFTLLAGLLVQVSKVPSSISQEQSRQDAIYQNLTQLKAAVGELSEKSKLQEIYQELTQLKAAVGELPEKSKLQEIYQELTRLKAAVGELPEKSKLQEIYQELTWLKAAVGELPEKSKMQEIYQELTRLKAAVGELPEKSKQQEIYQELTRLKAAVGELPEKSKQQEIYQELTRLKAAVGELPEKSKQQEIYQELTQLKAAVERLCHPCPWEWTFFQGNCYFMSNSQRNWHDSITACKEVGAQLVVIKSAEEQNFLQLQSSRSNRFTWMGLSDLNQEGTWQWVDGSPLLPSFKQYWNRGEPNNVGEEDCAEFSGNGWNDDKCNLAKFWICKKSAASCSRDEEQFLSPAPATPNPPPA
# [2] = system: Ebola virus; conditions: Ebola virus infection model; Reina et al. 2007; cited from earlier work
# [3] = system: HIV-1 BaL; assay: trans-infection of CD4+ T lymphocytes by B-THP-1/DC-SIGN cells exposed to virus in continued presence of inhibitor, p24 ELISA
# [4] = system: HIV-1 BaL; assay: trans-infection assay, B-THP-1/DC-SIGN cells incubated with inhibitor and washed before adding the virus; conditions: 5 mM, cells washed with buffer before adding virus (BaL); Figure 3
smiles,measurement,setting,value
COC(=O)[C@H]1C[C@H](OCCN=[N+]=[N-])[C@@H](O[C@H]2O[C@H](CO)[C@@H](O)[C@H](O)[C@@H]2O)C[C@@H]1C(=O)OC [compound 1],binding to DC-SIGN,[1],binds
same,anti-infective action,[2],moderate anti-infective action
OC[C@H]1OC(O)[C@@H](O)[C@@H](O)[C@@H]1O (some centres unmarked) [Man4],activity at 100 µM,"[3]; Human immunodeficiency virus 1, BAL, CD4+ T, read-out: infection level",≥ 30%
"COC(=O)[C@H]1C[C@H](OC[C@H]2O[C@H](OCCN=[N+]=[N-])[C@@H](O)[C@@H](O)[C@@H]2O)[C@@H](O[C@H]2O[C@H](CO)[C@@H](O)[C@H](O)[C@@H]2O)C[C@@H]1C(=O)OC [compound 2b, α(1,2)α(1,6)pseudomannotriose]",antiinfective activity in the trans-infection assay,[4],no antiinfective activity
same,"concentration needed to reach a similar inhibition level, compared with 12","[3]; HIV-1 BaL, Figure 2",much higher concentration
